According to patent US20090005407A1, “PARTICULATE (3'-CHLOROBIPHENYL-4-YL)(1-(PYRIMIDIN-2-YL)PIPERIDIN-4-YL)METHANONE AND METHODS OF ITS USE” (priority 2007, published 2009):

Key:
water solubility = format: physicochemical
mice = conditions: administered to mice; see U.S. Ser. Nos. 11/433,057 and 11/433,626; cited from earlier work

water solubility (water solubility): poorly water soluble
Structure (SMILES): O=C(c1ccc(-c2cccc(Cl)c2)cc1)C1CCN(c2ncccn2)CC1 [(3′-chlorobiphenyl-4-yl)(1-(pyrimidin-2-yl)piperidin-4-yl)methanone]
effect on learning and memory (mice): increase learning and memory
